Laboratory results as given in US20020004500A1, “Vasopeptidase Inhibitors to treat isolated systolic hypertension” (priority 2000, published 2002).

Experiments:
[1] = tested on: subjects with isolated systolic hypertension; assay: Omapatrilat in subjects with isolated systolic hypertension: trough seated blood pressure, forced- and elective-dose titration versus placebo; format: in vivo, human; details: for Δtrough seated diastolic blood pressure / Δtrough seated systolic blood pressure: week 9, change from baseline, trough 24±3 hours post dose; for percentage of normalized subjects (trough seated systolic blood pressure less than 140 mm Hg): week 9
Experimental: Omapatrilat was studied in subjects with isolated systolic hypertension (seated systolic blood pressure 160-199 mm Hg and diastolic blood pressure less than 90 after 4 weeks of single-blind placebo lead-in). Both a forced-dose titration (at Week 1) and an elective-dose titration (at Week 9) design were used to compare the change from baseline, relative to placebo, in trough (24±3 hours post dose) seated systolic blood pressure after 9 weeks and 13 weeks of once-daily oral administration of 3 dose regimens of omapatrilat. Treatment regimens consisted of omapatrilat 10 mg lead-in maintained at 10 mg at week 1, electively titrated to 20 mg at week 9 for subjects with a seated systolic blood pressure greater than or equal to 140 mm Hg, or omapatrilat 20 mg lead-in maintained at 20 mg at week 1, electively titrated to 40 mg at week 9 for subjects with a seated systolic blood pressure greater than or equal to 140 mm Hg, or omapatrilat 20 mg lead-in increased to 40 mg at week 1, electively titrated to 80 mg at week 9 for subjects with a seated systolic blood pressure greater than or equal to 140 mm Hg. Placebo was mock titrated at weeks 1 and week 9.
429 subjects were randomized. The mean age was 67 years, and mean baseline blood pressure was 169/82 mm Hg. The primary efficacy objective was to compare the change from baseline, relative to placebo, in trough (24±3 hours post dose) seated systolic blood pressure after 9 weeks of once-daily oral administration of 3 dose regimens of omapatrilat.

neutral endopeptidase = assay: Urinary atrial natriuretic peptide excretion rate in subjects with isolated systolic hypertension; format: in vivo, human; details: once daily 80 mg, at 24 hours after dosing
[2] = omapatrilat 10/10 mg once-daily oral
[3] = omapatrilat 20/20 mg once-daily oral
[4] = omapatrilat 20/40 mg once-daily oral

Question: What does the source list for O=C(N[C@H]1CCSC2CCC[C@@H](C(=O)O)N2C1=O)C(S)Cc1ccccc1 (relative stereo) [Omapatrilat, [4S-[4α(R*), 7α, 10aβ]]-octahydro-4-[(2-mercapto-1-oxo-3-phenylpropyl)amino]-5-oxo-7H-pyrido[2,1-b][1,3]thiazepine-7-carboxylic acid]?
Answer: systolic and diastolic blood pressure reductions at trough versus placebo regimen ([1]; 10/10/20 mg, 20/20/40 mg and 20/40/80 mg once-daily for 13 weeks, predominately elderly subjects): greater systolic blood pressure and diastolic blood pressure reductions at trough than a regimen of placebo; systolic blood pressure reductions versus placebo ([1]; Week 13, after elective titration): Additional small reductions in systolic blood pressure versus placebo; Δtrough seated diastolic blood pressure [1, 2]: −1.8; Δtrough seated systolic blood pressure [1, 2]: −15.9; percentage of normalized subjects (trough seated systolic blood pressure less than 140 mm Hg) ([1]; omapatrilat 10/10 mg): 28%; Δtrough seated diastolic blood pressure [1, 3]: −2.6; Δtrough seated systolic blood pressure [1, 3]: −23.1; percentage of normalized subjects (trough seated systolic blood pressure less than 140 mm Hg) ([1]; omapatrilat 20/20 mg): 51%; Δtrough seated diastolic blood pressure [1, 4]: −4.6; Δtrough seated systolic blood pressure [1, 4]: −26.1; percentage of normalized subjects (trough seated systolic blood pressure less than 140 mm Hg) ([1]; omapatrilat 20/40 mg): 47%; systolic and diastolic blood pressure reductions versus placebo regimen ([1]; week 9, all 3 omapatrilat regimens): greater systolic and diastolic blood pressure reductions than the placebo regimen; urinary atrial natriuretic peptide excretion rate (neutral endopeptidase): persistent elevation
